From PubChem BioAssay AID248 (DTP/NCI, 2004)
Several values for one entry are separate records, joined by “and”; a condition that tells them apart may be missing. Identical values can stand only once. Inconclusive results and toxic doses are left out. Cut-off read from the data, not from the text of the source: active = T/C of 150% or more; inactive = T/C below 125%.

Test system: L1210 leukemia ip in BDF1 mice, survival T/C
Assay: NCI In Vivo Anticancer Drug Screen. Data for tumor model L1210 Leukemia (intraperitoneal) in B6D2F1 (BDF1) mice
Conditions: endpoint: mean survival time, higher = longer survival
Method in brief: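 Value reflects the ratio of survival in compound-treated mice to survival in vehicle-treated controls, with both groups carrying the same transplanted tumor.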

[1] = dose: 50.0 mg/kg/injection, schedule: Q01DX001 (ip), vehicle: saline
[2] = dose: 100.0 mg/kg/injection, schedule: Q01DX001 (ip), vehicle: saline
[3] = dose: 200.0 mg/kg/injection, schedule: Q01DX001 (ip), vehicle: saline
[4] = dose: 400.0 mg/kg/injection, schedule: Q01DX001 (ip), vehicle: saline
[5] = dose: 25.0 mg/kg/injection, schedule: Q01DX009 (ip), vehicle: saline with Tween-80
[6] = dose: 100.0 mg/kg/injection, schedule: Q01DX009 (ip), vehicle: saline with Tween-80
[7] = dose: 200.0 mg/kg/injection, schedule: Q01DX009 (ip), vehicle: saline with Tween-80
[8] = dose: 400.0 mg/kg/injection, schedule: Q01DX009 (ip), vehicle: saline with Tween-80
[9] = dose: 100.0 mg/kg/injection, schedule: Q01DX001 (ip), vehicle: carboxymethylcellulose (CMC)
[10] = dose: 200.0 mg/kg/injection, schedule: Q01DX001 (ip), vehicle: carboxymethylcellulose (CMC)
[11] = dose: 400.0 mg/kg/injection, schedule: Q01DX001 (ip), vehicle: carboxymethylcellulose (CMC)
[12] = dose: 100.0 mg/kg/injection, schedule: Q04DX003 (ip), vehicle: saline with Tween-80
[13] = dose: 200.0 mg/kg/injection, schedule: Q04DX003 (ip), vehicle: saline with Tween-80
[14] = dose: 400.0 mg/kg/injection, schedule: Q04DX003 (ip), vehicle: saline with Tween-80
[15] = dose: 100.0 mg/kg/injection, schedule: Q04DX002 (ip), vehicle: Klucel (hydroxypropylcellulose) (HPC)
[16] = dose: 100.0 mg/kg/injection, schedule: Q01DX001 (ip), vehicle: Klucel (hydroxypropylcellulose) (HPC)
[17] = dose: 100.0 mg/kg/injection, schedule: Q04DX003 (ip), vehicle: Klucel (hydroxypropylcellulose) (HPC)
[18] = dose: 200.0 mg/kg/injection, schedule: Q01DX001 (ip), vehicle: Klucel (hydroxypropylcellulose) (HPC)
[19] = dose: 200.0 mg/kg/injection, schedule: Q04DX003 (ip), vehicle: Klucel (hydroxypropylcellulose) (HPC)
[20] = dose: 400.0 mg/kg/injection, schedule: Q01DX001 (ip), vehicle: Klucel (hydroxypropylcellulose) (HPC)
[21] = dose: 400.0 mg/kg/injection, schedule: Q04DX003 (ip), vehicle: Klucel (hydroxypropylcellulose) (HPC)

Measured: T/C

Nc1ncnc2c1ncn2CCC(O)c1ccccc1 (configuration not stated)
inactive: [1] 95 % of control | [2] 93 % of control | [3] 95 % of control | [4] 93 % of control

O=[N+]([O-])c1cccc(OCCOc2ccccc2)c1
inactive: [5] 116 % of control | dose: 33.0 mg/kg/injection, schedule: Q01DX009 (ip), vehicle: saline with Tween-80 98 % of control | dose: 75.0 mg/kg/injection, schedule: Q01DX009 (ip), vehicle: saline with Tween-80 96 % of control | [6] 102 % of control and 86 % of control | [7] 102 % of control | [8] 102 % of control

CSc1ncnc2c1ncn2/N=C/c1ccccc1
inactive: [9] 96 % of control | [10] 95 % of control | [11] 96 % of control

O=C(Nc1ncccn1)c1ccc(Cl)cc1Cl
inactive: dose: 50.0 mg/kg/injection, schedule: Q04DX003 (ip), vehicle: saline with Tween-80 93 % of control | dose: 100.0 mg/kg/injection, schedule: Q01DX001 (ip), vehicle: saline with Tween-80 103 % of control | [6] 102 % of control | dose: 100.0 mg/kg/injection, schedule: Q04DX002 (ip), vehicle: saline with Tween-80 93 % of control and 91 % of control | [12] 94 % of control and 100 % of control | dose: 200.0 mg/kg/injection, schedule: Q01DX001 (ip), vehicle: saline with Tween-80 96 % of control | [7] 102 % of control | dose: 200.0 mg/kg/injection, schedule: Q04DX002 (ip), vehicle: saline with Tween-80 104 % of control | [13] 91 % of control | dose: 400.0 mg/kg/injection, schedule: Q01DX001 (ip), vehicle: saline with Tween-80 96 % of control | [8] 100 % of control | dose: 400.0 mg/kg/injection, schedule: Q04DX002 (ip), vehicle: saline with Tween-80 105 % of control and 107 % of control | [14] 103 % of control and 92 % of control

CN1CCN(c2ncnc3c2ncn3C2OC(CO)C(O)C2O)CC1 (configuration not stated)
inactive: dose: 100.0 mg/kg/injection, schedule: Q01DX005 (ip), vehicle: water 95 % of control | dose: 200.0 mg/kg/injection, schedule: Q01DX005 (ip), vehicle: water 90 % of control | dose: 400.0 mg/kg/injection, schedule: Q01DX005 (ip), vehicle: water 93 % of control

CP1CCC(O)(c2ccccc2)CC1 (configuration not stated)
inactive: [15] 88 % of control | dose: 200.0 mg/kg/injection, schedule: Q04DX002 (ip), vehicle: Klucel (hydroxypropylcellulose) (HPC) 103 % of control | dose: 400.0 mg/kg/injection, schedule: Q04DX002 (ip), vehicle: Klucel (hydroxypropylcellulose) (HPC) 95 % of control

CCOC(=O)N(CCC(=O)OC(C)(C)C)CC(=O)OC(C)(C)C
inactive: dose: 75.0 mg/kg/injection, schedule: Q01DX001 (ip), vehicle: saline 92 % of control | dose: 150.0 mg/kg/injection, schedule: Q01DX001 (ip), vehicle: saline 95 % of control | dose: 300.0 mg/kg/injection, schedule: Q01DX001 (ip), vehicle: saline 101 % of control

Cc1ccc(NCc2nc(N)nc(Nc3ccc(C)cc3)n2)cc1
inactive: [12] 93 % of control | [13] 101 % of control | [14] 97 % of control

Cc1ccc(C(=O)CCCC(=O)O)c(O)c1
inactive: [16] 96 % of control | dose: 100.0 mg/kg/injection, schedule: Q01DX009 (ip), vehicle: Klucel (hydroxypropylcellulose) (HPC) 97 % of control | [17] 102 % of control | [18] 104 % of control | dose: 200.0 mg/kg/injection, schedule: Q01DX009 (ip), vehicle: Klucel (hydroxypropylcellulose) (HPC) 93 % of control | [19] 112 % of control | [20] 95 % of control | dose: 400.0 mg/kg/injection, schedule: Q01DX009 (ip), vehicle: Klucel (hydroxypropylcellulose) (HPC) 92 % of control | [21] 100 % of control

O=C(C[n+]1ccccc1)N/N=C/c1ccccc1O
inactive: dose: 12.5 mg/kg/injection, schedule: Q01DX009 (ip), vehicle: saline with Tween-80 86 % of control | [5] 86 % of control | dose: 50.0 mg/kg/injection, schedule: Q01DX009 (ip), vehicle: saline with Tween-80 96 % of control

O=C(NCCc1ccc(S(=O)(=O)Nc2ccc(N=Nc3ccc(N=Nc4ccccc4)cc3)cc2)cc1)C(N1CC1)(N1CC1)N1CC1
inactive: dose: 15.0 mg/kg/injection, schedule: Q01DX001 (ip), vehicle: saline 104 % of control | dose: 30.0 mg/kg/injection, schedule: Q01DX001 (ip), vehicle: saline 106 % of control

O=C(/C=C\c1ccc(Cl)cc1)OCCCCOC(=O)/C=C/c1ccc(Cl)cc1
inactive: [1] 96 % of control | [2] 93 % of control | [3] 93 % of control | [4] 93 % of control

C/C=C(\C)C(C#N)CCCC (configuration not stated)
inactive: dose: 75.0 mg/kg/injection, schedule: Q01DX001 (ip), vehicle: carboxymethylcellulose (CMC) 95 % of control | dose: 150.0 mg/kg/injection, schedule: Q01DX001 (ip), vehicle: carboxymethylcellulose (CMC) 106 % of control | dose: 300.0 mg/kg/injection, schedule: Q01DX001 (ip), vehicle: carboxymethylcellulose (CMC) 95 % of control

COc1ccc(C2=CC(O)CC(c3ccccc3)C2c2ccccc2)cc1 (configuration not stated)
inactive: [12] 105 % of control | [13] 103 % of control | [14] 91 % of control

O=C(Nc1cccc(Cl)c1)Nc1cc(C(F)(F)F)ccc1Cl
inactive: dose: 50.0 mg/kg/injection, schedule: Q01DX001 (ip), vehicle: carboxymethylcellulose (CMC) 96 % of control | [9] 100 % of control | [10] 91 % of control | [11] 100 % of control

CN(N)c1ncnc2c1ncn2C1OC(CO)C(O)C1O (configuration not stated)
inactive: [12] 114 % of control | [13] 106 % of control | [14] 95 % of control

CCC(C)(CO)N=Cc1ccccc1O.CCC(C)(O)/N=C/c1ccccc1O.[Cu].[Cu] (configuration not stated)
inactive: dose: 9.5 mg/kg/injection, schedule: Q01DX001 (ip), vehicle: other 100 % of control | dose: 19.0 mg/kg/injection, schedule: Q01DX001 (ip), vehicle: other 97 % of control | dose: 38.0 mg/kg/injection, schedule: Q01DX001 (ip), vehicle: other 86 % of control

Cn1c(O)c(N=Nc2ccccc2[N+](=O)[O-])c2ccccc21
inactive: dose: 100.0 mg/kg/injection, schedule: Q01DX001 (ip), vehicle: other 95 % of control | dose: 200.0 mg/kg/injection, schedule: Q01DX001 (ip), vehicle: other 90 % of control | dose: 400.0 mg/kg/injection, schedule: Q01DX001 (ip), vehicle: other 95 % of control

NNC(=O)CNc1ccc(Cl)cc1
inactive: dose: 25.0 mg/kg/injection, schedule: Q04DX002 (ip), vehicle: Klucel (hydroxypropylcellulose) (HPC) 98 % of control | dose: 50.0 mg/kg/injection, schedule: Q04DX002 (ip), vehicle: Klucel (hydroxypropylcellulose) (HPC) 106 % of control | [15] 98 % of control and 123 % of control

O=C(/C=C/c1cccc(Br)c1)c1ccc(Cl)cc1
inactive: dose: 50.0 mg/kg/injection, schedule: Q01DX009 (ip), vehicle: other 107 % of control | dose: 100.0 mg/kg/injection, schedule: Q01DX009 (ip), vehicle: other 92 % of control | dose: 100.0 mg/kg/injection, schedule: Q04DX003 (ip), vehicle: other 89 % of control | dose: 200.0 mg/kg/injection, schedule: Q01DX009 (ip), vehicle: other 96 % of control | dose: 200.0 mg/kg/injection, schedule: Q04DX003 (ip), vehicle: other 100 % of control

NC(=O)Nc1ccc(C(=O)O)cc1
inactive: [16] 95 % of control | [17] 100 % of control | [18] 91 % of control | [19] 97 % of control | [20] 98 % of control | [21] 98 % of control

COc1cccc(/C=N\N=C\c2cccc(OC)c2OC)c1OC
inactive: dose: 50.0 mg/kg/injection, schedule: Q01DX009 (ip), vehicle: saline 120 % of control | dose: 200.0 mg/kg/injection, schedule: Q01DX009 (ip), vehicle: saline 110 % of control

NC(N)=NCCCC(N=Cc1ccccc1O)C(=O)O (configuration not stated)
inactive: [2] 96 % of control | [3] 102 % of control | [4] 95 % of control

COC(=O)C1(C(=O)OC)C=CCCC1=O
inactive: [17] 108 % of control | [19] 107 % of control | [21] 96 % of control
